Results: patent US8975235B2, “Lysophosphatidic acid receptor antagonists” (InterMune, Inc., priority 2011, dated 2015)

Target: Human LPA1 (Homo sapiens, UniProt Q92633)
Assay: Beta-Arrestin based assay for human LPA1R antagonists (PathHunter)
Assay type: cell-based
Design: host or cells: CHO
Conditions: CHO cells stably expressing ProLink tagged human LPA1R; agonist LPA 0.5 micromolar
Experimental: Beta-Arrestin Based Assays for Human LPA1R Antagonists and Agonists
A CHO cell line stably expressing the ProLink™ tagged human LPA1R was obtained from DiscoverX Inc, Fremont, Calif. In this system, β-Arrestin was fused to an N-terminal deletion mutant of β-galactosidase (termed the enzyme acceptor or EA), the human LPA1R was fused to a smaller (42 amino acids) weakly complementing fragment termed ProLink™. […] Cell handling and assays were performed according to protocols specified in the PathHunter® assays kits (DiscoverX, Fremont, Calif.). Assays were performed in quadruplicate in white 384 well plates. End point luminescence data were plotted and fit to a 4 parameter logistic function to obtain IC50 values. For antagonist assays, an […] concentration of agonist (LPA) equal to 0.5 micromolar was used.

Chain of Human LPA1 (Q92633 whole entry): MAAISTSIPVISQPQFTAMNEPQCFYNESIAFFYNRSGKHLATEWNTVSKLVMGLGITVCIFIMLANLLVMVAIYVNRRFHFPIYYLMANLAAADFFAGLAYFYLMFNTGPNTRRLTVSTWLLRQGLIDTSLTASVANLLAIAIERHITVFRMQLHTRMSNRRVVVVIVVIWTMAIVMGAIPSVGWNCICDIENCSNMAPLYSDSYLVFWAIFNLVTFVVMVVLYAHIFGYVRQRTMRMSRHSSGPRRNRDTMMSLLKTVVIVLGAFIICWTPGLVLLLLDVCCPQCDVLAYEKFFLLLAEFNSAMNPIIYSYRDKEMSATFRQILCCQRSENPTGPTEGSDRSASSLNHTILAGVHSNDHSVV

SMILES | EC50 [nM]
Cc1nc(-c2ccc(-c3ccc(C4(C(=O)O)CC4)cc3)cc2)c(NC(=O)O[C@H](C)c2ccccc2Cl)o1 [Compound 155] | 50 to 500
Cc1nc(-c2ccc(-c3ccc(C4(C(=O)O)CC4)cc3)cc2)c(NC(=O)OCc2ccccc2)o1 [Compound 156] | > 500
Cc1nnn(-c2ccc(-c3ccc(C4(C(=O)O)CC4)cc3)cc2)c1NC(=O)OCc1ccccc1 [Compound 157] | 50 to 500
C[C@@H](OC(=O)Nc1nncn1-c1ccc(-c2ccc(C3(C(=O)O)CC3)cc2)cc1)c1ccccc1 [Compound 158] | > 500
C[C@@H](OC(=O)Nc1nncn1-c1ccc(-c2ccc(C3(C(=O)O)CC3)cc2)cc1)c1ccccc1Cl [Compound 159] | > 500
O=C(Nc1nncn1-c1ccc(-c2ccc(C3(C(=O)O)CC3)cc2)cc1)OCc1ccccc1 [Compound 160] | > 500
Cc1nc(NC(=O)O[C@H](C)c2ccccc2)n(-c2ccc(-c3ccc(C4(C(=O)O)CC4)cc3)cc2)n1 [Compound 161] | > 500
Cc1nc(NC(=O)O[C@H](C)c2ccccc2Cl)n(-c2ccc(-c3ccc(C4(C(=O)O)CC4)cc3)cc2)n1 [Compound 162] | > 500
C[C@@H](OC(=O)Nc1ccn(-c2ccc(-c3ccc(C4(C(=O)O)CC4)cc3)cc2)n1)c1ccccc1 [Compound 163] | > 500
C[C@@H](OC(=O)Nc1cncn1-c1ccc(-c2ccc(C3(C(=O)O)CC3)cc2)cc1)c1ccccc1Cl [Compound 164] | 50 to 500
C[C@@H](OC(=O)Nc1cncn1-c1ccc(-c2ccc(C3(C(=O)O)CC3)cc2)cc1)c1ccccc1 [Compound 165] | 50 to 500
O=C(Nc1cncn1-c1ccc(-c2ccc(C3(C(=O)O)CC3)cc2)cc1)OCc1ccccc1 [Compound 166] | > 500
Cn1cnc(-c2ccc(-c3ccc(C4(C(=O)O)CC4)cc3)cc2)c1NC(=O)OCc1ccccc1 [Compound 167] | > 500
C[C@@H](OC(=O)Nc1c(-c2ccc(-c3ccc(C4(C(=O)O)CC4)cc3)cc2)ncn1C)c1ccccc1Cl [Compound 168] | < 50
C[C@@H](OC(=O)Nc1c(-c2ccc(-c3ccc(C4(C(=O)O)CC4)cc3)cc2)ncn1C)c1ccccc1 [Compound 169] | 50 to 500
Cn1ncc(-c2ccc(-c3ccc(C4(C(=O)O)CC4)cc3)cc2)c1NC(=O)OCc1ccccc1 [Compound 172] | < 50

SMILES | EC50 [nM]
O=C(Nc1snnc1-c1ccc(-c2ccc(C3(C(=O)O)CC3)cc2)cc1)OCc1ccccc1 [Compound 173] | > 500
C[C@@H](OC(=O)Nc1snnc1-c1ccc(-c2ccc(C3(C(=O)O)CC3)cc2)cc1)c1ccccc1 [Compound 174] | 50 to 500
C[C@@H](OC(=O)Nc1snnc1-c1ccc(-c2ccc(C3(C(=O)O)CC3)cc2)cc1)c1ccccc1Cl [Compound 175] | 50 to 500
C[C@@H](OC(=O)Nc1nonc1-c1ccc(-c2ccc(C3(C(=O)O)CC3)cc2)cc1)c1ccccc1 [Compound 176] | < 50
C[C@@H](OC(=O)Nc1nonc1-c1ccc(-c2ccc(C3(C(=O)O)CC3)cc2)cc1)c1ccccc1Cl [Compound 177] | < 50
Cc1noc(-c2nc3cc4oc(C5(C(=O)O)CC5)nc4cc3o2)c1NC(=O)O[C@H](C)c1ccccc1 [Compound 178] | 50 to 500
Cc1nsc(-c2cc(F)c(-c3ccc(C4(C(=O)O)CC4)cc3)cc2Cl)c1NC(=O)O[C@H](C)c1ccccc1Cl [Compound 180] | < 50
Cc1nsc(-c2cc(F)c(-c3ccc(C4(C(=O)O)CC4)cc3)cc2F)c1NC(=O)O[C@H](C)c1ccccc1Cl [Compound 181] | < 50
Cc1nsc(-c2c(F)cc(-c3ccc(C4(C(=O)O)CC4)cc3)cc2F)c1NC(=O)O[C@H](C)c1ccccc1 [Compound 183] | 50 to 500
Cc1nsc(-c2ccc(-c3ccc(C4(C(=O)O)CC4)cc3)cc2F)c1NC(=O)O[C@H](C)c1ccccc1 [Compound 184] | < 50
Cc1nsc(-c2ccc(-c3ccc(C4(C(=O)O)CC4)cc3)c(Cl)c2)c1NC(=O)O[C@H](C)c1ccccc1Cl [Compound 186] | < 50
Cc1nsc(-c2ccc(-c3ccc(C4(C(=O)O)CC4)cc3)cc2Cl)c1NC(=O)O[C@H](C)c1ccccc1Cl [Compound 187] | < 50
Cc1nsc(-c2ccc(-c3ccc(C4(C(=O)O)CC4)cc3)c(Cl)c2)c1NC(=O)O[C@H](C)c1ccccc1 [Compound 188] | < 50
Cc1nsc(-c2ccc(-c3ccc(C4(C(=O)O)CC4)cc3)cc2C#N)c1NC(=O)O[C@H](C)c1ccccc1 [Compound 189] | > 500
Cc1nsc(-c2ccc(-c3ccc(CC(=O)O)cc3Cl)cc2)c1NC(=O)O[C@H](C)c1ccccc1Cl [Compound 190] | 50 to 500
Cc1nsc(-c2ccc(-c3ccc(C4(C(=O)O)CC4)c(Cl)c3)cc2)c1NC(=O)O[C@H](C)c1ccccc1Cl [Compound 191] | < 50

Results, then the compound that gave them:

EC50 [nM] | SMILES
50 to 500 | Cc1nsc(-c2ccc(-c3ccc(CC(=O)O)c(Cl)c3)cc2)c1NC(=O)O[C@H](C)c1ccccc1Cl [Compound 192]
50 to 500 | Cc1cc(CC(=O)O)ccc1-c1ccc(-c2snc(C)c2NC(=O)O[C@H](C)c2ccccc2Cl)cc1 [Compound 193]
< 50 | Cc1nsc(-c2ccc(-c3ccc(C4(C(=O)O)CC4)cc3)cc2)c1NC(=O)O[C@H](C)c1cccc(F)c1 [Compound 194]
50 to 500 | Cc1nsc(-c2ccc(-c3ccc(CC(=O)O)cc3F)cc2)c1NC(=O)O[C@H](C)c1ccccc1Cl [Compound 195]
50 to 500 | Cc1nsc(-c2ccc(-c3ccc(CC(=O)O)c(F)c3)cc2)c1NC(=O)O[C@H](C)c1ccccc1Cl [Compound 196]
< 50 | Cc1nsc(-c2ccc(-c3ccc(C4(C(=O)O)CC4)c(F)c3)cc2)c1NC(=O)O[C@H](C)c1ccccc1Cl [Compound 197]
< 50 | Cc1nsc(-c2ccc(-c3ccc(C4(C(=O)O)CC4)cc3)cc2)c1NC(=O)O[C@H](C)c1cccc(Cl)c1 [Compound 198]
< 50 | C[C@@H](OC(=O)Nc1c(-c2cc(F)c(-c3ccc(C4(C(=O)O)CC4)cc3)cc2F)cnn1C)c1ccccc1Cl [Compound 199]
< 50 | C[C@@H](OC(=O)Nc1c(-c2cc(Cl)c(-c3ccc(C4(C(=O)O)CC4)cc3)cc2F)cnn1C)c1ccccc1Cl [Compound 202]
< 50 | C[C@@H](OC(=O)Nc1c(-c2ccc(-c3ccc(C4(C(=O)O)CC4)cc3)c(F)c2)cnn1C)c1ccccc1 [Compound 203]
< 50 | C[C@@H](OC(=O)Nc1c(-c2ccc(-c3ccc(C4(C(=O)O)CC4)cc3)cc2F)cnn1C)c1ccccc1 [Compound 204]
< 50 | C[C@@H](OC(=O)Nc1c(-c2c(F)cc(-c3ccc(C4(C(=O)O)CC4)cc3)cc2F)cnn1C)c1ccccc1 [Compound 205]
< 50 | C[C@@H](OC(=O)Nc1oncc1-c1ccc(-c2ccc(C3(C(=O)O)CC3)cc2)cc1)c1ccccc1 [Compound 206]
> 500 | C[C@@H](OC(=O)Nc1sc2ccccc2c1-c1ccc(-c2ccc(C3(C(=O)O)CC3)cc2)cc1)c1ccccc1 [Compound 207]
> 500 | C[C@@H](OC(=O)Nc1oc2ccccc2c1-c1ccc(-c2ccc(C3(C(=O)O)CC3)cc2)cc1)c1ccccc1 [Compound 208]
50 to 500 | C[C@@H](OC(=O)Nc1c(-c2ccc(-c3ccc(C4(C(=O)O)CC4)cc3)cc2)sc2ccccc12)c1ccccc1Cl [Compound 209]

EC50 [nM] | SMILES
50 to 500 | C[C@@H](OC(=O)Nc1cnsc1-c1ccc(-c2ccc(C3(C(=O)O)CC3)cc2)cc1)c1ccccc1Cl [Compound 210]
50 to 500 | C[C@@H](OC(=O)Nc1nsnc1-c1ccc(-c2ccc(C3(C(=O)O)CC3)cc2)cc1)c1ccccc1 [Compound 211]
> 500 | C[C@@H](OC(=O)Nc1c(-c2ccc(-c3ccc(C4(C(=O)O)CC4)cc3)cc2)oc2nc(C(F)(F)F)ccc12)c1ccccc1 [Compound 212]
> 500 | Cc1ccc2c(NC(=O)O[C@H](C)c3ccccc3)c(-c3ccc(-c4ccc(C5(C(=O)O)CC5)cc4)cc3)sc2n1 [Compound 214]
> 500 | Cc1ccc2c(NC(=O)O[C@H](C)c3ccccc3)c(-c3ccc(-c4ccc(C5(C(=O)O)CC5)cc4)cc3)oc2n1 [Compound 215]
< 50 | Cc1nsc(-c2ccc(-c3ccc(C4(C(=O)O)CC4)cc3)cc2)c1NC(=O)O[C@H](C)C1=C(Cl)CCCC1 [Compound 218]
50 to 500 | Cc1nsc(-c2ccc(-c3ccc(C4(C(=O)O)CC4)cc3)cc2)c1NC(=O)O[C@@H](C)C1=C(Cl)CCCC1 [Compound 219]
< 50 | CC(C)n1ncc(-c2ccc(-c3ccc(C4(C(=O)O)CC4)cc3)cc2)c1NC(=O)O[C@H](C)c1ccccc1 [Compound 220]
< 50 | CCn1ncc(-c2ccc(-c3ccc(C4(C(=O)O)CC4)cc3)cc2)c1NC(=O)O[C@H](C)c1ccccc1 [Compound 221]
> 500 | CC(OC(=O)Nc1n[nH]nc1-c1ccc(-c2ccc(C3(C(=O)O)CC3)cc2)cc1)c1ccccc1 (stereo not drawn) [Compound 223]
> 500 | C[C@@H](OC(=O)Nc1nn(C)nc1-c1ccc(-c2ccc(C3(C(=O)O)CC3)cc2)cc1)c1ccccc1 [Compound 225]
> 500 | C[C@@H](OC(=O)Nc1nnn(C)c1-c1ccc(-c2ccc(C3(C(=O)O)CC3)cc2)cc1)c1ccccc1 [Compound 226]
> 500 | Cc1nsc(-c2ccc(-c3ccc(C4(C(=O)O)CC4)cc3)cc2)c1NC(=O)O[C@@H](C)c1ccccc1 [Compound 236]
> 500 | Cc1nsc(-c2ccc(-c3ccc(C4(C(=O)OC5OC(C(=O)O)C(O)C(O)C5O)CC4)cc3)cc2)c1NC(=O)O[C@H](C)c1ccccc1 (stereo partly drawn) [Compound 238]
> 500 | Cc1nsc(-c2ccc(-c3ccc(C4(C(=O)O)CC4)cc3)c3c2CCC3)c1NC(=O)O[C@H](C)c1ccccc1 [Compound 239]
